Target: T1, enzyme purified from pink petals of a carnation (variety: "Beam Cherry") (glycosyltransferase) (Dianthus caryophyllus, UniProt E3W9M2)
T1 construct: the enzyme comprising 502 amino acid residues was translated, followed by amino acid removal via processing; from tissue; host or cells: petals of carnation, variety Beam Cherry
T1 sequence (E3W9M2 31-502): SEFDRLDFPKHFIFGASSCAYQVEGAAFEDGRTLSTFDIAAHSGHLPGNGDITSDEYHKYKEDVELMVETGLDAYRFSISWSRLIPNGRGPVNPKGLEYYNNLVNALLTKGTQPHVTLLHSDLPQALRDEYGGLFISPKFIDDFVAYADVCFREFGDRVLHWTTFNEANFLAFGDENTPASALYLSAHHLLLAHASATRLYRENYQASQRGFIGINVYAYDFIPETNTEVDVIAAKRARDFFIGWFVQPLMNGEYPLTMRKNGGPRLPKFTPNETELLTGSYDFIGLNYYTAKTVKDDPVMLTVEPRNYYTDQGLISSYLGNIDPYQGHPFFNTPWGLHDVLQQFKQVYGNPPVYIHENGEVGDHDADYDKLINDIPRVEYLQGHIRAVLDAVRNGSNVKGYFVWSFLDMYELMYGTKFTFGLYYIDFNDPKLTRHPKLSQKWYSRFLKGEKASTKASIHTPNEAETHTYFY
Assay: Relative activity of glycosyltransferase purified from carnation on each sugar donor (HPLC)
Type: biochemical
Details: purified enzyme 135 ng, cyanidin 3-glucoside 200 μM, sugar donor 500 μM, citric acid buffer pH 5.6, 30° C., 15 minutes; HPLC area of cyanidin 3,5-O-β-diglucoside
Experimental: An enzyme reaction was carried out at 30° C. for 15 minutes using an enzyme (135 ng) purified from pink petals of a carnation (variety: “Beam Cherry”) by the method described in Example 2 ((1) and (2)), cyanidin 3-glucoside (200 μM), and a sugar donor (1-O-β-D-vanillyl glucose or any of 1-O-β-D-p-coumaryl glucose, 1-O-β-D-caffeyl glucose, 1-O-β-D-feruloyl glucose, and 1-O-β-D-sinapoyl glucose that had been enzymatically synthesized according to the method described in Matsuba Y et al., Plant Biotechnology vol. 25, No. 4 (2008) pp. 369-375) (500 μM) in a reaction solution adjusted to 30 μl with the addition of a citric acid buffer (pH 5.6). A 20% phosphoric acid aqueous solution was added to the reaction liquid so as to result in a final phosphoric acid concentration of 1%. Thus, the reaction was terminated, followed by centrifugation. The resulting supernatant was subjected to separation using a HPLC column (Chromolith SpeedROD, 4.6×50 mm, Merck), eluent A (a 1.5% phosphoric acid aqueous solution), and eluent B (a 90% methanol aqueous solution) with a linear gradient of 18% to 28% liquid B (flow rate: 3.0 ml/min, 520 nm) (5 minutes), followed by analysis. The relative activity of the enzyme on each sugar donor was determined by calculating the area of the reaction product (cyanidin 3,5-O-β-diglucoside) on an HPLC chromatogram at a wavelength of 505 nm.

Question: For `COc1cc(C(=O)OC2OC(CO)C(O)C(O)C2O)ccc1O` (stereo not shown), which “Relative activity of an enzyme on a sugar donor (when synthetic 1-O-β-vanillyl glucose is set as 100)” value is on record?
Answer: Its value is 100.
